The values that follow come from patent US10072020B1, “Isatin spiro compounds with antibacterial activities and a method of preparing the same” (SHAANXI UNIVERSITY OF SCIENCE AND TECHNOLOGY, priority 2018, dated 2018).

Molecules are shown by their SMILES. In brackets after ≈: the same amount, converted by molar mass.

Holding throughout (test): Antibacterial activity test, MIC by agar dilution
Common to all, as to format: cell-based

Assay [1] deals with Escherichia coli 10-2. The following applies: 102, MH agar plate two-fold dilution, 25° C. for 18-24 hours, read-out: Minimum Inhibitory Concentrations. As to the method:
(§1) Antibacterial Activity Test of the Compounds of the Invention
(§2) The compounds were tested for their antibacterial activities using the following standard strains: Escherichia coli ATCC 25922, Escherichia coli 10-1, and Escherichia coli 10-2.
(§3) Preparation of Escherichia coli strains and bacterial liquid: the test strains (Escherichia coli ATCC 25922, Escherichia coli 10-1, and Escherichia coli 10-2) stock solutions were seeded in LB solid Media Petri dishes and placed in a 37° C. incubator overnight. The next day, single colonies were picked from LB solid petri dishes and inoculated into 6-10 mL LB liquid medium and cultured with shaking at 150 rpm for 3 hours at 37° C. 100 μL of the liquid was evenly coated on an LB solid plate, and inverted in an incubator at 37° C. overnight. Viable cells in the logarithmic growth phase were collected after 16-18 hours, and sterile water was added to form a bacteria suspension with the number of bacteria being 106 CFu·mL^−1.
(§4) Preparation of compound-containing agar plate: MH agar was heated to dissolve and placed in 45-50° C. water bath to balance, the compounds were added at different concentrations (160, 300, 600 μg·mL^−1). The mixtures were mixed evenly and poured onto sterilization plates, placed into a sealed plastic bag at 2-8° C.
(§5) Determination of the minimum inhibitory concentration: the minimum inhibitory concentrations (MICs) of the test compounds on the test bacteria were determined by diluting the agar plate two-fold. Multi-point inoculation instrument was used to inoculate bacteria to the MH agar medium that contains the compounds, forming a plaque with a diameter of 5 to 8 mm. After the plates were incubated at 25° C. for 18-24 hours, the growth state of the bacteria was observed, and the minimum compound concentration for inhibiting the growth of the bacteria was the MIC.

Assay [2] concerns Escherichia coli ATCC 25922. The following applies: ATCC25922, MH agar plate two-fold dilution, 25° C. for 18-24 hours, read-out: Minimum Inhibitory Concentrations. As to the method: as §1, §2, §3, §4, §5
Assay [3] concerns Escherichia coli 10-1. The following applies: 101, MH agar plate two-fold dilution, 25° C. for 18-24 hours, read-out: Minimum Inhibitory Concentrations. As to the method: as §1, §2, §3, §4, §5

In the case of `CN1C(=O)[C@@]2(OC(c3ccccc3)=C2C(=O)c2ccccc2)c2cccc(Br)c21` [Compound 6, (R)-3′-benzoyl-7-bromo-1-methyl-4′-phenylspiro[indoline-3,2′-oxet]-2-one], the figures for the MIC in assay [1], in assay [2] and in assay [3] were 300 µg/mL (≈ 672 µM), 300 µg/mL (≈ 672 µM) and over 600 µg/mL, respectively.

With `O=C(C1=C(c2ccccc2)O[C@@]12C(=O)N(Cc1ccccc1)c1c(Br)cccc12)c1ccccc1` [Compound 15], the MIC in assay [1] was found to be 300 µg/mL (≈ 574 µM); in assay [2], 160 µg/mL (≈ 306 µM); in assay [3], 160 µg/mL (≈ 306 µM).

In the case of `CCN1C(=O)[C@@]2(OC(c3ccccc3)=C2C=O)c2cccc(Cl)c21` [Compound 12, (R)-7-chloro-1-ethyl-2-oxo-4′-phenylspiro[indoline-3,2′-oxete]-3′-carbaldehyde], the MIC turned out to be 300 µg/mL (≈ 883 µM) in assay [1], 300 µg/mL (≈ 883 µM) in assay [2] and 160 µg/mL (≈ 471 µM) in assay [3].

As for `CCCN1C(=O)[C@@]2(OC=C2C(=O)c2ccccc2)c2cc(Cl)ccc21` [Compound 11, (R)-3′-benzoyl-5-chloro-1-propylspiro[indoline-3,2′-oxet]-2-one], the MIC in assay [1] is 160 µg/mL (≈ 452 µM); in assay [2], over 600 µg/mL; in assay [3], 160 µg/mL (≈ 452 µM).

Consider `O=C1Nc2ccccc2C1=O` [isatin], for which the MIC in assay [1] is 160 µg/mL (≈ 1090 µM); in assay [2], over 600 µg/mL; in assay [3] it was 300 µg/mL (≈ 2040 µM).

Take `CCN1C(=O)[C@@]2(OC=C2C=O)c2cc(Br)ccc21` [Compound 13, (R)-5-bromo-1-ethyl-2-oxospiro[indoline-3,2′-oxete]-3′-carbaldehyde]: the MIC in assay [1] was found to be 160 µg/mL (≈ 519 µM); in assay [2] it was 160 µg/mL (≈ 519 µM); in assay [3], 300 µg/mL (≈ 974 µM).

In the case of `O=CC1=CO[C@@]12C(=O)N(Cc1ccccc1)c1c(Cl)cccc12` [Compound 14], the MIC in assay [1] came to 160 µg/mL (≈ 491 µM); in assay [2], 300 µg/mL (≈ 921 µM); in assay [3] it was 160 µg/mL (≈ 491 µM).

For the molecule `CN1C(=O)[C@@]2(OC=C2C=O)c2cc(Cl)ccc21` [Compound 3, (R)-5-chloro-1-methyl-2-oxospiro[indoline-3,2′-oxete]-3′-carbaldehyde], the results for the MIC in assay [1], in assay [2] and in assay [3] were 300 µg/mL (≈ 1200 µM), 300 µg/mL (≈ 1200 µM) and 160 µg/mL (≈ 641 µM), respectively.

Turning to `CCCN1C(=O)[C@@]2(OC(c3ccccc3)=C2C(=O)c2ccccc2)c2cc(Cl)ccc21` [Compound 16, (R)-3′-benzoyl-5-chloro-4′-phenyl-1-propylspiro[indoline-3,2′-oxet]-2-one], the MIC in assay [1] worked out at 160 µg/mL (≈ 372 µM); in assay [2] it was 160 µg/mL (≈ 372 µM); in assay [3], 300 µg/mL (≈ 698 µM).

For the molecule `CN1C(=O)[C@@]2(OC=C2C=O)c2cccc(Br)c21` [Compound 2, (R)-7-bromo-1-methyl-2-oxospiro[indoline-3,2′-oxete]-3′-carbaldehyde], the MIC was over 160 µg/mL in assay [1], 300 µg/mL (≈ 1020 µM) in assay [2] and 160 µg/mL (≈ 544 µM) in assay [3].

With `CN1C(=O)[C@@]2(OC=C2C=O)c2cc(Br)ccc21` [Compound 1, (R)-5-bromo-1-methyl-2-oxospiro[indoline-3,2′-oxete]-3′-carbaldehyde], the figures for the MIC in assay [1], in assay [2] and in assay [3] were 160 µg/mL (≈ 544 µM), 300 µg/mL (≈ 1020 µM) and 160 µg/mL (≈ 544 µM), respectively.

In the case of `CCCN1C(=O)[C@@]2(OC(c3ccccc3)=C2C=O)c2cccc(Br)c21` [Compound 10, (R)-7-bromo-2-oxo-4′-phenyl-1-propylspiro[indoline-3,2′-oxete]-3′-carbaldehyde], the MIC was over 600 µg/mL in assay [1], 300 µg/mL (≈ 753 µM) in assay [2] and 160 µg/mL (≈ 402 µM) in assay [3].

In the case of `CN1C(=O)[C@@]2(OC(c3ccccc3)=C2C(=O)c2ccccc2)c2cc(Cl)ccc21` [Compound 7, (R)-3′-benzoyl-5-chloro-1-methyl-4′-phenylspiro[indoline-3,2′-oxet]-2-one], the MIC came out at 300 µg/mL (≈ 747 µM) in assay [1], 300 µg/mL (≈ 747 µM) in assay [2] and 160 µg/mL (≈ 398 µM) in assay [3].

`CCN1C(=O)[C@@]2(OC=C2C(=O)c2ccccc2)c2cc(Br)ccc21` [Compound 9, (R)-3′-benzoyl-5-bromo-1-ethylspiro[indoline-3,2′-oxet]-2-one]: the MIC in assay [1] is 160 µg/mL (≈ 416 µM); in assay [2], 300 µg/mL (≈ 781 µM); in assay [3] it was 300 µg/mL (≈ 781 µM).

As for `CN1C(=O)[C@@]2(OC(c3ccccc3)=C2C(=O)c2ccccc2)c2cc(Br)ccc21` [Compound 5, (R)-3′-benzoyl-5-bromo-1-methyl-4′-phenylspiro[indoline-3,2′-oxet]-2-one], the MIC amounted to 300 µg/mL (≈ 672 µM) in assay [1], 160 µg/mL (≈ 359 µM) in assay [2] and 300 µg/mL (≈ 672 µM) in assay [3].

Regarding `CN1C(=O)[C@@]2(OC(c3ccccc3)=C2C(=O)c2ccccc2)c2cccc(Cl)c21` [Compound 8, (R)-3′-benzoyl-7-chloro-1-methyl-4′-phenylspiro[indoline-3,2′-oxet]-2-one], the figures for the MIC in assay [1], in assay [2] and in assay [3] were 300 µg/mL (≈ 747 µM), 160 µg/mL (≈ 398 µM) and 300 µg/mL (≈ 747 µM), respectively.

For the molecule `CN1C(=O)[C@@]2(OC=C2C=O)c2cccc(Cl)c21` [Compound 4, (R)-7-chloro-1-methyl-2-oxospiro[indoline-3,2′-oxete]-3′-carbaldehyde], the MIC was 160 µg/mL (≈ 641 µM) in assay [1], over 600 µg/mL in assay [2] and 300 µg/mL (≈ 1200 µM) in assay [3].
